According to patent EP4813383A1, “USE OF TAFAMIDIS AND PHARMACEUTICALLY ACCEPTABLE SALT THEREOF IN PREVENTION, ALLEVIATION, OR TREATMENT OF DISEASES ASSOCIATED WITH HIF-2a” (Huaya Jiyuan (Shenzhen) Pharmaceutical Co., Ltd., priority 2024, dated 2025):

Tests used:
[1] = test system: 5/6 nephrectomy (5/6Nx) rat model; assay: 5/6 nephrectomy (5/6Nx) rat model; format: in vivo, Male Sprague Dawley (SD) rats
Excerpt: Male Sprague Dawley (SD) rats are used to establish a renal injury-induced anemia model through 5/6 nephrectomy surgery to investigate the erythropoiesis-promoting effect of tafamidis. After a one-week acclimation period, the rats are anesthetized with isoflurane, and the left kidney is exposed through a midline abdominal incision. Ligatures are placed at the upper one-third and lower one-third positions of the kidney, and the corresponding renal tissues outside the ligatures are excised. After a one-week recovery period, the right kidney is excised, with eight rats assigned to the nephrectomy group and the remaining eight rats serving as a non-operated normal control group. At week 4, renal dysfunction in the operated rats is confirmed by assessing serum urea and creatinine levels. Tafamidis and roxadustat are dissolved in a vehicle containing 10% dimethyl sulfoxide (DMSO), 30% polyethylene glycol 400 (PEG 400), 5% Tween-80, 1% hydrochloric acid (113.3 mM), 9% 0.1 N sodium hydroxide, and 45% normal saline. […] Starting from week 6, the tafamidis treatment group and the roxadustat group are orally administered the corresponding compound at 10 mg/kg daily (10 mg orally per day per 1 kg body weight of rat) for four weeks, while the sham-operated group and the 5/6 nephrectomy model (5/6Nx) rats are administered the vehicle based on the same dosing regimen. Hematological analysis is performed weekly, and urine samples are collected on the day following the final treatment, so as to determine urinary total protein (UTP) and urinary creatinine (UCREA). Hematological analysis is performed using the Sysmex Europe XN-2000 automated hematology analyzer, and urinalysis is performed using the Cobas C501 automated analyzer, both using commercially available kits in accordance with the manufacturers' instructions. After sample collection, the rats are euthanized. Statistical significance is determined by one-way analysis of variance (ANOVA), and then a Dunnett's test is performed for comparison with the 5/6Nx group (*P < 0.05, **P < 0.01, ***P < 0.001).

[2] = test system: Unilateral ureteral obstruction (UUO)-induced mouse model; assay: Unilateral ureteral obstruction (UUO)-induced mouse model of renal injury and anemia; format: in vivo, Male Balb/c mice; details: for Pathological score for renal tubular injury: H&E staining, Paller score, UUO control group 4.56 ± 0.19; for Reduction in fibrosis: Masson's trichrome staining, interstitial fibrosis, UUO control group 26.0 ± 1.9%; for Urea level: serum after final treatment, UUO control group 6.26 ± 0.14
Excerpt: Animal model establishment: Male Balb/c mice are anesthetized with isoflurane and then secured to an operating table with medical tape. After preparation of an abdominal midline incision site, the surgical part is disinfected with 75% ethanol-iodine tincture-ethanol. Subsequently, an incision is made along the linea alba of the mouse, and the incision is held open with a laparotomy retractor. The left ureter is isolated using a sterile cotton swab and curved forceps and ligated near the bladder dome using 3-0 suture. One drop of normal saline is added into the abdominal cavity, and then the abdomen is sutured. Following recovery on a heating pad, the mouse is returned to the cage, maintained under normal feeding and drinking conditions, and observed, thereby completing model establishment. For the sham-operated group, all procedures are the same as those of the model group except that no ligation is performed. For the treatment groups in the UUO model, male Balb/c mice, after a one-week acclimation period, are orally administered tafamidis (tafamidis treatment group) or roxadustat (roxadustat treatment group) by gavage for three consecutive days. The dose in the first tafamidis treatment group is 5 mg/kg/day, the dose in the second tafamidis treatment group is 10 mg/kg/day, and the dose in the roxadustat treatment group is 10 mg/kg/day. The drug administration is continued for seven days after unilateral ureteral obstruction surgery. A solvent is administered to the mice in the sham-operated group and the UUO control group based on the same dosing regimen. Serum analysis is performed after the final treatment. Serum analysis is performed using a Mindray BS-2000M automated […] analyzer with commercially available kits based on the manufacturer's instructions. After sample collection, the […] are euthanized. Statistical significance is determined by one-way analysis of variance (ANOVA), and then a Dunnett's test is performed for comparison with the UUO control group (*P < 0.05, **P < 0.01, ***P < 0.001).
Isolated left kidney samples from mice are fixed in 4% paraformaldehyde, dehydrated, embedded in paraffin, and sectioned. The tissue sections are 4 µm thick, and are subsequently subjected to histochemical staining such as H&E staining and Masson's trichrome staining. After staining, the sections are scanned using advanced three-dimensional histological imaging technology, and high-resolution images are captured using a Pannoramic DESK/MIDI/250/1000 system. H&E staining is analyzed to evaluate renal tubular injury. 10 fields are randomly selected from each sample, and examined at a 40× magnification. The degree of renal tubular injury is assessed using a semi-quantitative scoring system (Paller score): 0 (no injury), 1 (<25% injury), 2 (25% to 50% injury), 3 (50% to 75% injury), and 4 (>75% injury). In addition, the entire tissue section is assessed at a 0.7× magnification to determine the extent of collagen fiber deposition shown by Masson's trichrome staining. Semi-quantitative analysis of the collagen fiber area is performed using Image-Pro Plus 6.0 software. Statistical significance is determined by one-way analysis of variance (ANOVA), and then a Dunnett's test is performed for comparison with the UUO control group (*P < 0.05, **P < 0.01, ***P < 0.001).

[3] = 10 mg/kg/day oral gavage, listed as Roxadustat
[4] = 10 mg/kg daily oral for four weeks, urine on the day after final treatment

| SMILES | UTP excretion levels, increase compared with the 5/6Nx group ([1]; 10 mg/kg daily oral for four weeks, urine on the day after final treatment, p < 0.01) [fold] | RBC levels (erythrocytosis) ([1]; 10 mg/kg daily oral, day 14, against the physiological range of the healthy control group) | Pathological score for renal tubular injury ([2]; 10 mg/kg/day oral gavage) | Pathological score for renal tubular injury [2, 3] | Reduction in fibrosis ([2]; 10 mg/kg/day oral gavage) [%] | Reduction in fibrosis [2, 3] | Urea level ([2]; 10 mg/kg/day oral gavage) | Urea level [2, 3] | UTP excretion levels [1, 4] | effect on UCREA [1, 4] | red blood cell (RBC) count ([1]; 10 mg/kg daily oral, week 4, 5/6Nx group 7.7 ± 0.3 × 10^12, p < 0.05) | Gross observation: pallor of the obstructed kidney ([2]; 5 mg/kg/day oral gavage) | Pathological score for renal tubular injury ([2]; 5 mg/kg/day oral gavage) | Urea level ([2]; 5 mg/kg/day oral gavage) |
| --- | --- | --- | --- | --- | --- | --- | --- | --- | --- | --- | --- | --- | --- | --- |
| Cc1nc(C(=O)NCC(=O)O)c(O)c2ccc(Oc3ccccc3)cc12 [roxadustat] | 3.3 | notable erythrocytosis | 4.78 ± 0.09 | 4.78 ± 0.09, P = 0.98 | 21.8 ± 1.6 | 21.8 ± 1.6%, P = 0.37 | 5.36 ± 0.10 mmol/L | 5.36 ± 0.10, P < 0.001 mmol/L | – | – | – | – | – | – |
| O=C(O)c1ccc2nc(-c3cc(Cl)cc(Cl)c3)oc2c1 [tafamidis, 2-(3,5-dichlorophenyl)-1,3-benzoxazole-6-carboxylic acid] | – | – | 2.93 ± 0.35, P < 0.05 | – | – | – | 5.28 ± 0.29, P < 0.05 mmol/L | – | remain at baseline levels | essentially no effect | 8.2 ± 0.3 × 10^12 cells/L | significantly alleviates | 2.85 ± 0.83, P < 0.05 | 5.67 ± 0.23, P = 0.10 mmol/L |
